Reference: ChEMBL document CHEMBL4177667, “Design, synthesis, and anticancer properties of isocorydine derivatives” (Bioorg Med Chem, 2017)
Values after ≈ are worked out from the molar mass of the structure shown. Active and inactive are the calls of the source. The rule behind the calls is not given here.

Tests used:
HepG2 [1] = assay: cells; details: Homo sapiens, HepG2, 48 h
HepG2 [2] = assay: Synergistic downregulation of beta-catenin protein levels in human HepG2 cells at 10 ug/ml after 48 hrs in presence of sorafenib by Western blot analysis; type: functional, cell-based
HepG2 [3] = assay: Antiproliferative activity against human HepG2 cells after 72 hrs by MTT assay; type: functional, cell-based; details: HepG2, 72 h
MGC-803 = assay: Antiproliferative activity against human MGC803 cells after 48 hrs by MTT assay; type: functional, cell-based; details: MGC-803, 48 h
H22 [4] = assay: Synergistic antitumor activity against mouse H22 cells implanted in mouse assessed as tumor growth inhibition at 50 mg/kg, ip or ig qd administered for 10 consecutive days measured after 24 hrs post last dose in presence of sorafenib relative to control; type: functional; details: read-out: TGI
HepG2 [5] = assay: Synergistic growth inhibition against human HepG2 cells assessed as fold change in sorafenib IC50 at 2.50 ug/ml after 24 hrs by MTT assay; type: functional
H22 [6] = assay: Antitumor activity against mouse H22 cells implanted in mouse assessed as tumor growth inhibition at 100 mg/kg, ig qd administered for 10 consecutive days measured after 24 hrs post last dose relative to control; type: functional; details: H22, po, read-out: TGI
HepG2 [7] = assay: Synergistic growth inhibition against human HepG2 cells assessed as fold change in sorafenib IC50 at 5 ug/ml after 24 hrs by MTT assay; type: functional
HeLa = assay: cells; details: Homo sapiens, 48 h
HepG2 [8] = assay: Synergistic induction of apoptosis in human HepG2 cells assessed as necrotic cells at 10 ug/ml after 24 hrs in presence of sorafenib by Annexin V-FITC/propidium iodide staining-based flow cytometric analysis (reference value: 0%); type: functional
HepG2 [9] = assay: cells; details: Homo sapiens, HepG2, 24 h
Description: Antiproliferative activity against human HepG2 cells after 24 hrs by MTT assay

H22 [10] = assay: Antitumor activity against mouse H22 cells implanted in mouse assessed as tumor growth inhibition at 50 mg/kg, ig qd administered for 10 consecutive days measured after 24 hrs post last dose relative to control; type: functional; details: H22, po, read-out: TGI
HepG2 [11] = assay: Synergistic downregulation of C-myc protein levels in human HepG2 cells at 10 ug/ml after 48 hrs in presence of sorafenib by Western blot analysis; type: functional, cell-based
H22 [12] = assay: Synergistic antitumor activity against mouse H22 cells implanted in mouse assessed as tumor growth inhibition at 150 mg/kg, ip or ig qd administered for 10 consecutive days measured after 24 hrs post last dose in presence of sorafenib relative to control; type: functional; details: read-out: TGI
HepG2 [13] = assay: Downregulation of cyclin D1 protein levels in human HepG2 cells after 48 hrs by Western blot analysis; type: functional, cell-based
HepG2 [14] = assay: Induction of apoptosis in human HepG2 cells assessed as late apoptotic cells at 5 ug/ml after 24 hrs by Annexin V-FITC/propidium iodide staining-based flow cytometric analysis (reference value: 0%); type: functional
SMMC-7721 = assay: Antiproliferative activity against human SMMC7721 cells after 48 hrs by MTT assay; type: functional, cell-based; details: SMMC-7721, 48 h
HepG2 [15] = assay: Induction of apoptosis in human HepG2 cells assessed as early apoptotic cells at 5 ug/ml after 24 hrs by Annexin V-FITC/propidium iodide staining-based flow cytometric analysis (reference value: 0.18%); type: functional
HepG2 [16] = assay: Downregulation of C-myc protein levels in human HepG2 cells after 48 hrs by Western blot analysis; type: functional, cell-based
HepG2 [17] = assay: Synergistic downregulation of cyclin D1 protein levels in human HepG2 cells at 10 ug/ml after 48 hrs in presence of sorafenib by Western blot analysis; type: functional, cell-based
HepG2 [18] = assay: Synergistic downregulation of Ki67 protein levels in human HepG2 cells at 10 ug/ml after 48 hrs in presence of sorafenib by Western blot analysis; type: functional, cell-based
HepG2 [19] = assay: Downregulation of Ki67 protein levels in human HepG2 cells after 48 hrs by Western blot analysis; type: functional, cell-based
H22 [20] = assay: Synergistic antitumor activity against mouse H22 cells implanted in mouse assessed as tumor growth inhibition at 100 mg/kg, ip or ig qd administered for 10 consecutive days measured after 24 hrs post last dose in presence of sorafenib relative to control; type: functional; details: read-out: TGI
HepG2 [21] = assay: Downregulation of beta-Catenin protein levels in human HepG2 cells after 48 hrs by Western blot analysis; type: functional, cell-based
MDA-MB-231 = assay: Antiproliferative activity against human MDA-MB-231 cells after 48 hrs by MTT assay; type: functional, cell-based; details: MDA-MB-231, 48 h
HepG2 [22] = assay: Synergistic upregulation of vementin protein levels in human HepG2 cells at 10 ug/ml after 48 hrs in presence of sorafenib by Western blot analysis; type: functional, cell-based
HepG2 [23] = assay: Synergistic growth inhibition against human HepG2 cells assessed as fold change in sorafenib IC50 at 10 ug/ml after 24 hrs by MTT assay; type: functional
HepG2 [24] = assay: Induction of apoptosis in human HepG2 cells assessed as necrotic cells at 10 ug/ml after 24 hrs by Annexin V-FITC/propidium iodide staining-based flow cytometric analysis (reference value: 0%); type: functional
HepG2 [25] = assay: Synergistic induction of apoptosis in human HepG2 cells assessed as late apoptotic cells at 10 ug/ml after 24 hrs in presence of sorafenib by Annexin V-FITC/propidium iodide staining-based flow cytometric analysis (reference value: 0%); type: functional
HepG2 [26] = assay: Induction of apoptosis in human HepG2 cells assessed as viable cells at 10 ug/ml after 24 hrs by Annexin V-FITC/propidium iodide staining-based flow cytometric analysis (reference value: 99.82%); type: functional; details: HepG2, 24 h, read-out: Activity
H22 [27] = assay: Antitumor activity against mouse H22 cells implanted in mouse assessed as tumor growth inhibition at 50 mg/kg, ip qd administered for 10 consecutive days measured after 24 hrs post last dose relative to control; type: functional; details: read-out: TGI
HepG2 [28] = assay: Induction of apoptosis in human HepG2 cells assessed as early apoptotic cells at 10 ug/ml after 24 hrs by Annexin V-FITC/propidium iodide staining-based flow cytometric analysis (reference value: 0.18%); type: functional
HepG2 [29] = assay: Upregulation of vimentin protein levels in human HepG2 cells at 5 to 20 ug/ml after 48 hrs by Western blot analysis; type: functional, cell-based
U-251 = assay: Antiproliferative activity against human U251 cells after 48 hrs by MTT assay; type: functional, cell-based; details: U-251, 48 h
H22 [30] = assay: Antitumor activity against mouse H22 cells implanted in mouse assessed as tumor growth inhibition at 150 mg/kg, ig qd administered for 10 consecutive days measured after 24 hrs post last dose relative to control; type: functional; details: H22, po, read-out: TGI
H22 [31] = assay: Antitumor activity against mouse H22 cells implanted in mouse assessed as tumor growth inhibition at 150 mg/kg, ip qd administered for 10 consecutive days measured after 24 hrs post last dose relative to control; type: functional; details: read-out: TGI
HepG2 [32] = assay: Cell cycle arrest in human HepG2 cells assessed as decrease in accumulation of cells at G0/G1 phase at 10 ug/ml after 48 hrs by propidium iodide staining-based flow cytometric analysis; type: functional
HepG2 [33] = assay: Synergistic induction of apoptosis in human HepG2 cells assessed as viable cells at 10 ug/ml after 24 hrs in presence of sorafenib by Annexin V-FITC/propidium iodide staining-based flow cytometric analysis (reference value: 99.82%); type: functional; details: HepG2, 24 h, read-out: Activity
H22 [34] = assay: Antitumor activity against mouse H22 cells implanted in mouse assessed as tumor growth inhibition at 100 mg/kg, ip qd administered for 10 consecutive days measured after 24 hrs post last dose relative to control; type: functional; details: read-out: TGI
HepG2 [35] = assay: Induction of apoptosis in human HepG2 cells assessed as late apoptotic cells at 10 ug/ml after 24 hrs by Annexin V-FITC/propidium iodide staining-based flow cytometric analysis (reference value: 0%); type: functional
HepG2 [36] = assay: Induction of apoptosis in human HepG2 cells assessed as viable cells at 5 ug/ml after 24 hrs by Annexin V-FITC/propidium iodide staining-based flow cytometric analysis (reference value: 99.82%); type: functional; details: HepG2, 24 h, read-out: Activity
HepG2 [37] = assay: Cell cycle arrest in human HepG2 cells assessed as increase in accumulation of cells at G2/M phase at 10 ug/ml after 48 hrs by propidium iodide staining-based flow cytometric analysis; type: functional
HepG2 [38] = assay: Synergistic induction of apoptosis in human HepG2 cells assessed as early apoptotic cells at 10 ug/ml after 24 hrs in presence of sorafenib by Annexin V-FITC/propidium iodide staining-based flow cytometric analysis (reference value: 0.18%); type: functional
HepG2 [39] = assay: Synergistic cell cycle arrest in human HepG2 cells assessed as decrease in accumulation of cells at G0/G1 phase at 10 ug/ml after 48 hrs in presence of sorafenib by propidium iodide staining-based flow cytometric analysis; type: functional
HepG2 [40] = assay: Induction of apoptosis in human HepG2 cells assessed as necrotic cells at 5 ug/ml after 24 hrs by Annexin V-FITC/propidium iodide staining-based flow cytometric analysis (reference value: 0%); type: functional

In the case of `COc1cc(NC(=O)Nc2ccc(Cl)c(C(F)(F)F)c2)c2c(c1O)-c1c(OC)c(OC)cc3c1[C@H](C2)N(C)CC3`, the IC50 (HepG2 [1]) is reported as 17.2 µM, the Activity (HepG2 [2]) is reported as “Active” and the IC50 (HepG2 [3]) is reported as 6.7 µg/mL (≈ 11.6 µM). The IC50 (MGC-803) was 16.6 µM, the inhibition in vivo at 50 mg/kg (H22 [4]) was 63.1% and the “fold change (FC)” value (HepG2 [5]) was 0.91. The inhibition in vivo at 100 mg/kg (H22 [6]) was 48.2%, the “fold change (FC)” value (HepG2 [7]) was 1.25 and the IC50 (HeLa) was 26.5 µM. The Activity (HepG2 [8]) was 0.06%, the IC50 (HepG2 [9]) was 16.8 µg/mL (≈ 29.1 µM) and the inhibition in vivo at 50 mg/kg (H22 [10]) was 40.1%. For the same compound, the Activity (HepG2 [11]) was “Active”, the inhibition in vivo at 150 mg/kg (H22 [12]) was 70.6% and the Activity (HepG2 [13]) was “Dose-dependent effect”. The Activity (HepG2 [14]) was 2.14%, the IC50 (SMMC-7721) was 18.6 µg/mL (≈ 32.2 µM) and the Activity (HepG2 [15]) was 6.8%. For the same compound, the Activity (HepG2 [16]) was “Dose-dependent effect”, the Activity (HepG2 [17]) was “Active” and the Activity (HepG2 [18]) was “Active”. For the same compound, the Activity (HepG2 [19]) was “Dose-dependent effect”, the inhibition in vivo at 100 mg/kg (H22 [20]) was 65.1% and the Activity (HepG2 [21]) was “Dose-dependent effect”. For the same compound, the IC50 (MDA-MB-231) was 15.6 µg/mL (≈ 27 µM), the Activity (HepG2 [22]) was “inactive” and the “fold change (FC)” value (HepG2 [23]) was 2.04. It also gave an Activity (HepG2 [24]) of 0.04%, an Activity (HepG2 [25]) of 19.34% and a viability at 10 µg/mL (HepG2 [26]) of 88.1%. For the same compound, the inhibition in vivo at 50 mg/kg (H22 [27]) was 40.3%, the Activity (HepG2 [28]) was 3.11% and the Activity (HepG2 [29]) was “Active”. For the same compound, the IC50 (U-251) was 10.1 µg/mL (≈ 17.5 µM), the inhibition in vivo at 150 mg/kg (H22 [30]) was 53.4% and the inhibition in vivo at 150 mg/kg (H22 [31]) was 50.8%. The Activity (HepG2 [32]) was “Active”, the viability at 10 µg/mL (HepG2 [33]) was 36.3% and the inhibition in vivo at 100 mg/kg (H22 [34]) was 46.3%. The Activity (HepG2 [35]) was 8.78%, the viability at 5 µg/mL (HepG2 [36]) was 91% and the Activity (HepG2 [37]) was “Active”. For the same compound, the Activity (HepG2 [38]) was 44.33%, the Activity (HepG2 [39]) was “Active” and the Activity (HepG2 [40]) was 0.07%.
